{"source": "patent US7659245B2", "about": "“Macrocylic inhibitors of hepatitis C virus” (Tibotec Pharmaceuticals Ltd, priority 2005, dated 2010)", "key": {"[1]": {"details": "rcm bond, DCE"}, "[2]": {"details": "rcm bond, 14-membered ring, Hoveyda-Grubbs II, DCE"}, "[3]": {"test_system": "HCV replicons (Huh-7 luc/neo cells, NS3-NS5B regions of HCV type 1b)", "assay": "Replicon assay: inhibition of HCV RNA replication in Huh-Luc cells (luciferase read-out)", "type": "cell-based", "details": "HCV type 1b replicon, luciferase activity after three days"}, "[4]": {"molecular_target": "full-length hepatitis C NS3 protease enzyme (HCV NS3/4A protease complexes) (Hepatitis C virus genotype 1a, UniProt P27958)", "sequence (P27958 1027-1657, one chain of several)": "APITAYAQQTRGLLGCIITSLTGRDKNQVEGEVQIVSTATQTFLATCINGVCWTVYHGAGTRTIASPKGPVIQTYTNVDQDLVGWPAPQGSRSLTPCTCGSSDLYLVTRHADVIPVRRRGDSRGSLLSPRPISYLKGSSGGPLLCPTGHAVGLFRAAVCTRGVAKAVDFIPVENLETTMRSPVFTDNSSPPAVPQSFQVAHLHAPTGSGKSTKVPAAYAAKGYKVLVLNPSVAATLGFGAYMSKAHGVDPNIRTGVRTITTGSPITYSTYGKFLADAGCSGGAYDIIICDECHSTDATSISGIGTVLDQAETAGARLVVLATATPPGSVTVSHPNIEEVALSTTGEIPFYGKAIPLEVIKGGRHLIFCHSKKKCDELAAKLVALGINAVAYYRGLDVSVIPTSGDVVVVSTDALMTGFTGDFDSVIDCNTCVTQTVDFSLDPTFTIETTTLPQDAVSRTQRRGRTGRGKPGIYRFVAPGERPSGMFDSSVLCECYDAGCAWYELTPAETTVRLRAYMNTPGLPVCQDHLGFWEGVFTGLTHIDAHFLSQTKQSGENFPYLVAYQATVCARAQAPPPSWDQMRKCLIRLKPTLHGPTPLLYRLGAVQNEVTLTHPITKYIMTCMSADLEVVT", "assay": "Inhibition assay (enzymatic assay) of HCV NS3/4A protease", "type": "biochemical", "details": "enzyme 1 nM, 25 μM NS4A cofactor, 0.5 μM depsipeptide substrate, 30° C., competitive model"}, "[5]": {"details": "14-membered ring, Hoveyda-Grubbs I, with chain assembly"}}, "note": "Read-outs that look alike come from different tables or passages of the source.", "data": [{"molecule": "CCOC(=O)C12CC1C=CCCCCCN(Cc1ccc(OC)cc1)C(=O)N1CC(OC(=O)c3ccc([N+](=O)[O-])cc3)CC1C(=O)N2", "note": "(centres unmarked)", "values": [{"measurement": "ring closure, isolated yield", "setting": "[1]; from C=CCCCCCN(Cc1ccc(OC)cc1)C(=O)N1CC(OC(=O)c2ccc([N+](=O)[O-])cc2)CC1C(=O)NC1(C(=O)OCC)CC1C=C, 15-membered ring, Hoveyda-Grubbs II (5 mol%), then LiOH, 0.74 mM, 2 steps", "value": 61, "unit": "%"}]}, {"molecule": "CCOC(=O)C12CC1C=CCCCCN(C)C(=O)C1CC(Oc3nc(-c4ccc(OC)cc4)nc4c(C)c(OC)ccc34)CC1C(=O)N2", "note": "(centres unmarked)", "values": [{"measurement": "ring closure, isolated yield", "setting": "[1]; from C=CCCCCN(C)C(=O)C1CC(Oc2nc(-c3ccc(OC)cc3)nc3c(C)c(OC)ccc23)CC1C(=O)NC1(C(=O)OCC)CC1C=C, 14-membered ring, Hoveyda-Grubbs II, 1.71 mM, 16.0 h", "value": 75, "unit": "%"}]}, {"molecule": "CCOC(=O)C12CC1C=CCCCCN(C)C(=O)C1CC(Oc3nc(-c4cccc(F)c4)nc4c(C)c(OC)ccc34)CC1C(=O)N2", "note": "(centres unmarked)", "values": [{"measurement": "ring closure, isolated yield", "setting": "[1]; from C=CCCCCN(C)C(=O)C1CC(Oc2nc(-c3cccc(F)c3)nc3c(C)c(OC)ccc23)CC1C(=O)NC1(C(=O)OCC)CC1C=C, 14-membered ring, Hoveyda-Grubbs II, 1.49 mM, 16.0 h", "value": 70, "unit": "%"}]}, {"molecule": "CN1CCCCC=CC2CC2(C(=O)NS(=O)(=O)C2CC2)NC(=O)C2CC(Oc3nc(-c4ccccc4)nc4ccccc34)CC2C1=O", "note": "(centres unmarked)", "values": [{"measurement": "ring closure, yield after HPLC", "setting": "[2]; from 4-(2-Phenyl-quinazolin-4-yloxy)-cyclopentane-1,2-dicarboxylic acid 1-[(1 cyclo-propanesulfonecarbonyl-2-vinylcyclopropyl)-amide]2-(hex-5-enylmethylamide), 1.72 mM, 150.0 °C", "value": 29, "unit": "%"}]}, {"molecule": "CN1CCCCC=CC2CC2(C(=O)NS(=O)(=O)C2CC2)NC(=O)C2CC(Oc3nc(N4CCOCC4)nc4ccccc34)CC2C1=O", "note": "(centres unmarked)", "values": [{"measurement": "ring closure, yield after HPLC", "setting": "[2]; from 4-(2-Morpholin-4-yl-quinazolin-4-yloxy)-cyclopentane-1,2-dicarboxylic acid 1-[(1-cyclopropanesulfonylaminocarbonyl-2-vinyl-cyclopropyl)-amide]2-(hex-5-enyl-methyl-amide), 1.63 mM, 150.0 °C", "value": 56, "unit": "%"}]}, {"molecule": "CN1CCN(c2nc(OC3CC4C(=O)NC5(C(=O)NS(=O)(=O)C6CC6)CC5C=CCCCCN(C)C(=O)C4C3)c3ccccc3n2)CC1", "note": "(centres unmarked)", "values": [{"measurement": "ring closure, yield after HPLC", "setting": "[2]; from 4-[2-(4-Methyl-piperazin-1-yl)-quinazolin-4-yloxy]-cyclopentane-1,2-dicarboxylic acid 1-[(1-cyclopropanesulfonylaminocarbonyl-2-vinyl-cyclopropyl)amide]2-(hex-5-enyl-methyl-amide), 1.61 mM, 150.0 °C", "value": 22, "unit": "%"}]}, {"molecule": "COc1ccc2c(OC3CC4C(=O)NC5(C(=O)O)CC5C=CCCCCN(C)C(=O)N4C3)nc(-c3ccc(F)cc3)nc2c1C", "note": "(centres unmarked)", "values": [{"measurement": "ring closure, isolated yield", "setting": "[1]; [5]", "value": 20, "unit": "%"}]}, {"molecule": "COc1ccc2c(OC3CC4C(=O)NC5(C(=O)O)CC5C=CCCCCN(C)C(=O)N4C3)ncnc2c1C", "note": "(centres unmarked)", "values": [{"measurement": "ring closure, isolated yield", "setting": "[1]; [5]", "value": 8, "unit": "%"}]}, {"molecule": "17-(7-Methoxy-2-phenyl-quinazolin-4-yloxy-13-methyl-2,14-dioxo-3,13-diazatricyclo[13.3.0.0*4,6*]octadec-7-ene-4-carboxylic acid ethyl ester", "values": [{"measurement": "ring closure, isolated yield", "setting": "[1]; 14-membered ring, Hoveyda-Grubbs I, 1.1 mM", "value": 40, "unit": "%"}]}, {"molecule": "17-[2-(4-Isopropyl-thiazol-2-yl)-7-methoxy-quinazolin-4-yloxy]-13-methyl-2,14-dioxo-3,13-diaza-tricyclo[13.3.0.0*4,6*]octadec-7-ene-4-carboylic acid ethyl ester", "values": [{"measurement": "ring closure, isolated yield", "setting": "[1]; 14-membered ring, Hoveyda-Grubbs II, 1.45 mM, 90.0 °C", "value": 46, "unit": "%"}]}, {"molecule": "COc1ccc2c(O[C@@H]3C[C@H]4C(=O)N[C@]5(C(=O)NS(=O)(=O)C6(C)CC6)C[C@H]5/C=C\\CCCCCNC(=O)N4C3)nc(-c3ccccc3)nc2c1C", "note": "[Compound 176, 1-Methyl-cyclopropanesulfonic acid [18-(7-methoxy-8-methyl-2-phenyl-quinazolin-4-yloxy)-2,15-dioxo-3,14,16-triaza-tricyclo[14.3.0.0*4,6*]nonadec-7-ene-4-carboyl]-amide]", "values": [{"measurement": "EC50", "setting": "[3]; Hepatitis C virus, Huh-7, 72 h", "value": "0.5 to 199", "unit": "nM"}, {"measurement": "Ki", "setting": "[4]", "value": "0.1 to 4.9", "unit": "nM"}]}, {"molecule": "COc1ccc2c(O[C@@H]3C[C@H]4C(=O)N[C@]5(C(=O)NS(=O)(=O)C6CC6)C[C@H]5/C=C\\CCCCN(C)C(=O)N4C3)nc(-c3ccncc3)nc2c1C", "note": "[Compound 179, Cyclopropanesulfonic acid [17-(7-methoxy-8-methyl-2-pyridin-4-yl-quinazolin-4-yloxy)-13-methyl-2,14-dioxo-3,13,15-triaza-tricyclo[13.3.0.0*4,6*]octadec-7-ene-4-carbonyl]-amide]", "values": [{"measurement": "EC50", "setting": "[3]; Hepatitis C virus, Huh-7, 72 h", "value": "0.5 to 199", "unit": "nM"}, {"measurement": "Ki", "setting": "[4]", "value": "0.1 to 4.9", "unit": "nM"}]}, {"molecule": "Cyclopropanesulfonic acid {13-methyl-2,14-dioxo-17-[2-(5H-pyrazol-1-yl)-quinazolin-4-yloxy]-3,13-diaza-tricyclo[13.3.0.0*4,6*]octadec-7-ene-4-carbonyl-amide [Compound 70]", "values": [{"measurement": "EC50", "setting": "[3]", "value": "> 10000", "unit": "nM"}, {"measurement": "Ki", "setting": "[4]", "value": "> 1000", "unit": "nM"}]}, {"molecule": "Cyclopropanesulfonic acid {17-[2-(4-isopropyl-thiazol-2-yl)-quinazolin-4-yloxy-]-13-methyl-2,14-dioxo-3,13-diaza-tricyclo[13.3.0.0*4,6*]octadec-7-ene-4-carbonyl}-amide", "values": [{"measurement": "ring closure, yield after HPLC", "setting": "[2]; 1.67 mM, 15.0 °C", "value": 64, "unit": "%"}]}]}
